We go through 1 compound from patent US4031211A, “Adriamycin esters, their preparation and use” (priority 1975, dated 1977).

One data set deals with Moloney sarcoma virus. The experiment in a line: Inhibition of Moloney sarcoma virus-induced foci in mouse embryo fibroblasts. Format: cell-based. As to conditions: text on Table 6, in vitro. On the procedure: ^2 Inhibition of Moloney sarcoma virus-induced foci in mouse embryo
fibroblasts proliferation (treatment per 72 hours)

The subject of the next data set is Gross leukemia. The experiment in a line: Antitumor effect on Gross leukemia in mice. Here is the method: (§1) The compounds according to the invention were tested on several in vitro systems and experimental mouse tumors, in comparison with adriamycin.
For data set [1], the system named is experimental mouse tumors. The experiment in a line: Antitumor/therapeutic activity and toxicity in experimental mouse tumors, overall statements. It counts as in vivo.
The test system of another data set is L 1210 leukemia. The experiment in a line: Antitumor effect on L 1210 leukemia in mice. As to conditions: Table 5, ip, day 1. On the procedure: as §1
The next data set concerns Ascites sarcoma 180. The data set is described as follows: Antitumor effect on ascites sarcoma 180 in mice. The conditions noted are these: for LTS / TC: Table 5, ip, day 1. On the procedure: as §1
[2] abbreviates: Table 5, first experiment, iv, days 1,2,3, 6 mg./kg.

For the compound `CCCCCCCCCCCC(=O)OCC(=O)OCC(=O)C1(O)Cc2c(O)c3c(c(O)c2C(OC2CC(N)C(O)C(C)O2)C1)C(=O)c1c(OC)cccc1C3=O.Cl` (stereo not shown) [adriamycin-14-0-lauroyl glycolate, Adriamycin-14-0-Lauroyl Glycolate Hydrochloride], the “activity on Moloney Sarcoma Virus” value with Moloney sarcoma virus is recorded as “most active among all of them”. Further, in the data set with Gross leukemia, the “increase of the median survival time compared with adriamycin” value is listed as “higher increase of the median survival time than does adriamycin”. Further, the TC in the data set with Gross leukemia (Table 5, first experiment, iv, days 1,2,3, 4.5 mg./kg.) is reported as 136%; in the data set with Gross leukemia (setting [2]), 257%; with Gross leukemia (Table 5, first experiment, iv, days 1,2,3, 7.5 mg./kg.), 221%; in the data set with Gross leukemia (Table 5, first experiment, iv, days 1,2,3, 9 mg./kg.), 128%; in the data set on Gross leukemia (Table 5, second experiment, iv, days 1,2,3, 6 mg./kg.), 193%; in the data set with Gross leukemia (Table 5, second experiment, iv, days 1,2,3, 7.5 mg./kg.), 214%. Further, the TC with L 1210 leukemia (2 mg./kg.) turned out to be 135%; in the data set with L 1210 leukemia (4 mg./kg.), 141%; with L 1210 leukemia (8 mg./kg.), 165%; in the data set on L 1210 leukemia (16 mg./kg.), 200%; in the data set with Ascites sarcoma 180 (2 mg./kg.), 436%; with Ascites sarcoma 180 (4 mg./kg.) it was 493%. Besides, the TC is on record as 385% with Ascites sarcoma 180 (8 mg./kg.) and 242% in the data set with Ascites sarcoma 180 (16 mg./kg.). Besides, the LTS in the data set with Gross leukemia (setting [2]) is 2/10; with L 1210 leukemia (16 mg./kg.), 1/10; in the data set on Ascites sarcoma 180 (2 mg./kg.), 4/10; in the data set with Ascites sarcoma 180 (4 mg./kg.) it was 8/10. Also, in data set [1], the “toxicity compared with adriamycin” value was “less toxic than adriamycin”. Moreover, the “number of long term survivors compared with adriamycin” value with Ascites sarcoma 180 is on record as “higher number of long term survivors”.
